Measurements taken from paper PMC4738305, “Metabolism and Disposition of Aditoprim in Swine, Broilers, Carp and Rats” (Scientific Reports, 2016).
Read-outs that look alike come from different tables or passages of the source.

Key:
[1] = Metabolite profiling of ADP in excreta, plasma and bile (LC-v.ARC/MS-IT-TOF); assay type: in vivo, broilers; conditions: for percentage of the individual metabolite compared with the total concentration of ADP-related: within 6 h after dosing; for Average percentage of ADP and its metabolites in total dose: Broilers, Excreta, single oral 5 mg/kg b.w. ^3H-ADP
Description: (§1) Animals (4 swine, 6 broilers, 6 carp, and 3 male and 3 female rats) were housed individually in clean, suspended wire-mesh metabolism cages, designed to separate the urine from the feces (carp were raised in individual aquaria). Each animal was weighed and assigned with a permanent identification number. A single dose of ^3 H-ADP (5 mg/kg b. w., 0.1 Ci/g) was administered via the oral gavage. Excreta were collected on ice at the pre-administration, in the period of 6, 12, and 24 h on day 1 d, and afterwards, intermittently in the period of 24 h up to 14 d. The piscine excreta were collected by changing and collecting raised water. The total volume or weight of each sample was measured and homogenized. The total radioactivity levels were determined through LSC for the recovery calculations. After the preparation, the samples were analyzed through LC/MS-IT-TOF with v. ARC radiometric detection (XenoBioticLaboratories, Inc.) for metabolite profiling. The pretreatment samples were used as controls to determine the background radioactivity or the endogenous nondrug-related ions observed within respective matrices or their extracts.
(§2) A total of 36 animals from each species (swine n = 24) were randomly assigned to six equal treatment groups and administered a single daily dose of ^3 H-ADP at 5 mg/kg b. w. (0.1 Ci/g) through oral gavage for 7 consecutive days. All the animals were housed on the basis of their group in the cages or aquaria throughout the whole study period. A group of animals was slaughtered through exsanguination under diethyl ether inhalation of anesthesia in the period of 6 h, 1, 3, 7, 14, and 21 d after the administration. The blood samples were immediately collected into the heparinized tubes and was centrifuged at 1920 × g at 4 °C for 10 min to obtain the plasma. The tissues from the heart, liver, spleen, lung, kidney, craw (broilers), stomach, intestine, fat, skin, muscle, thymus, pancreas, bile, bladder, hair (scale for carp), genital gland, adrenal glands, swim bladder (carp), brain, lymph, and bursa (broilers) were carefully excised and collected. The tissues were thoroughly rinsed with the deionized water to remove the residuary blood, blotted to dryness, and finally to perform the homogenization. In order to avoid cross-contamination the dissecting instruments were washed during the tissue procurements. The blank tissues were collected in order to provide control matrices. The total radioactivity levels in each sample were determined through LSC. The samples extracted from the plasma, bile, and tissues of the liver, kidney, muscle, and fat/skin were analyzed through LC/MS-IT-TOF and v. ARC radiometric detection for metabolite profiling. The blank samples were used as control to determine the background radioactivity or the endogenous nondrug-related ions observed within respective matrices or their extracts.
(§3) For metabolite profiling, the urine and feces samples from each animals were pooled proportionally to the excreted amount in each sampling period from 0 to 6 h, 6 h to 1 d, 1 to 3 d, 3 to 7 d, and 7 to 14 d post-dose, respectively. All samples were fully homogenized before the process. The pre-dose and blank samples served as the controls for determining the background radioactivity or the endogenous, nondrug-related ions observed within respective matrices or their extracts.
(§4) The urine samples (plasma, bile and raised water for carp) was subjected to solid-phase extraction with an Oasis MCX cartridge (3 mL, […]; Waters, Milford, MA, USA) for metabolite purification and enrichment. The pH value was adjusted to 2.8–3.2 by adding 1 M hydrochloric acid (HCl), and 2 mL of the sample was transferred into MCX cartridge, which was preconditioned with 3 mL of methanol and 3 mL of 0.1 mol/L HCl solution. The cartridge was washed with 3 mL of 0.1 mol/L HCl solution and was eluted with 5 mL of NH4OH/methanol (4:96, v:v). The effluent was concentrated to dryness under a stream of nitrogen at 40 °C. […]

[2] = Concentration and elimination of ADP and its metabolites in liver, kidney, muscle, fat/skin after oral ^3H-ADP for 7 d; assay type: in vivo, carp; conditions: for concentration at 0.25 d / concentration at 1 d / concentration at 3 d / concentration at 7 d / concentration at 14 d / concentration at 21 d: carp, oral; for half-life: po
Description: as §2
The feces and tissues (2 g) were diluted with a mixture of methanol and chloroform (1:3, v:v; 2 mL/g homogenate). This procedure was carried out in a fume hood for the safety aspects. The pH value was adjusted to 9.0 with NH4OH. The mixture was vortexed and sonicated for 5 min and 10 min, respectively, and finally the samples were centrifuged at 7690 × g for 10 min. The supernatant was aspirated and then transferred into a new centrifuge tube. The obtained pellet was again subjected to the same process of vortex, ultrasonication, extraction, and centrifugation. The combined supernatant was concentrated under a stream of nitrogen in a water bath at 40 °C. The residue was reconstituted with 0.3 mL of methanol–water (1:9, v:v) before the injection into the LC-v. ARC/MS-IT-TOF system for analysis.
ADP and its metabolites in the prepared samples were determined with a v. ARC radiometric detector and a hybrid IT/TOF mass spectrometer connected to the HPLC system (Shimadzu Corp., Kyoto, Japan). The LC system was equipped with a solvent delivery pump (LC-20AD), an auto-sampler (SIL-20AC), a degasser (DGU-20 A 3), a photodiode array detector (SPD-M20A), a communication base module (CBM-20 A), and a column oven (CTO-20AC). The chromatographic separation was achieved by using an Agilent extend-C18 column (2.1 mm × 150 mm, 5 μm) with a gradient mobile phase of A (0.01% ammonia and 5 mM ammonium acetate in water) and B (methanol) at a flow rate of 0.2 mL/min. The column temperature was maintained at 35 °C. Various HPLC methods were performed because of the large number of different metabolites to be analyzed. For the porcine sample, method 1 started at 5% B and increased to 20% B over 35 min, then to 55% B by 60 min, followed by re-equilibration for another 10 min. For the remaining samples, method 2 started at 10% B and increased to 60% B over 30 min, subsequently was maintained at 60% B for an additional 10 min, and then changed to 90% B over 2 min and maintained for 2 min. Afterwards, a re-equilibration step (decreased to 10% B over 1 min and maintained at 10% B for additional 9 min) was followed. For each matrix, more than 98% of the radioactivity injected into the column was eluted during the running time of the gradient program. […]

[3] = Metabolite profiling of ADP in excreta, plasma and bile (LC-v.ARC/MS-IT-TOF); assay type: in vivo, rats; conditions: for Average percentage of ADP and its metabolites in total dose: Rat, single oral 5 mg/kg b.w. ^3H-ADP; for percentage of the individual metabolite compared with the total concentration of ADP-related: within 6 h after dosing
Description: as §1, §2, §3, §4

[4] = carp kidney, after 5 mg/kg b. w. for 7 days, read-out: t1/2 of the individual compound (converted)
[5] = carp liver, after 5 mg/kg b. w. for 7 days, read-out: t1/2 of the individual compound (converted)
[6] = carp muscle, after 5 mg/kg b. w. for 7 days, read-out: t1/2 of the individual compound (converted)
[7] = carp skin, after 5 mg/kg b. w. for 7 days, read-out: t1/2 of the individual compound (converted)
[8] = tissues (liver, kidney, muscle, fat/skin), 5 mg/kg, carp tissues, read-out: t1/2 of the individual compound, range over tissues

| percentage of the individual metabolite compared with the total concentration of ADP-related ([1]; Broilers Extra (excreta)) | percentage of the individual metabolite compared with the total concentration of ADP-related ([1]; Broilers Plasma) | Average percentage of ADP and its metabolites in total dose [1] | concentration at 0.25 d ([2]; kidney, 5 mg/kg b.w.) | concentration at 1 d ([2]; kidney, 5 mg/kg b.w.) | concentration at 3 d ([2]; kidney, 5 mg/kg b.w.) | concentration at 7 d ([2]; kidney, 5 mg/kg b.w.) | concentration at 0.25 d ([2]; liver, 5 mg/kg b. w.) | concentration at 1 d ([2]; liver, 5 mg/kg b. w.) | concentration at 3 d ([2]; liver, 5 mg/kg b. w.) | concentration at 7 d ([2]; liver, 5 mg/kg b. w.) | concentration at 0.25 d ([2]; muscle, 5 mg/kg b.w.) | concentration at 1 d ([2]; muscle, 5 mg/kg b.w.) | concentration at 0.25 d ([2]; skin, 5 mg/kg b. w.) | concentration at 1 d ([2]; skin, 5 mg/kg b. w.) | Average percentage of ADP and its metabolites in total dose ([3]; Feces) | Average percentage of ADP and its metabolites in total dose ([3]; Urine) | percentage of the individual metabolite compared with the total concentration of ADP-related ([3]; Rats Feces) | percentage of the individual metabolite compared with the total concentration of ADP-related ([3]; Rats Plasma) | percentage of the individual metabolite compared with the total concentration of ADP-related ([3]; Rats Urine) | SMILES | also measured |
| --- | --- | --- | --- | --- | --- | --- | --- | --- | --- | --- | --- | --- | --- | --- | --- | --- | --- | --- | --- | --- | --- |
| 63.2% | 51.6% | 64.3% | 38900 ± 8000 ng/g | 6470 ± 1250 ng/g | 3010 ± 550 ng/g | 1190 ± 80 ng/g | 13200 ± 3700 ng/g | 5750 ± 950 ng/g | 2370 ± 470 ng/g | 390 ± 100 ng/g | 1960 ± 530 ng/g | 1690 ± 410 ng/g | 3040 ± 520 ng/g | 2320 ± 670 ng/g | 14.0% | 61.3% | 79.4% | 75.0% | 71.2% | COc1cc(Cc2cnc(N)nc2N)cc(OC)c1N(C)C [A0, 2,4-Diamino-5-[4-(dimethylamino)-3,5-dimethoxybenzyl] pyrimidine] | share of the sample radioactivity in the detected tissues ([2]; carp liver, kidney, muscle, skin, over the sampling times): more than 42%; concentration at 14 d ([2]; kidney, 5 mg/kg b.w.): 680 ± 80 ng/g; concentration at 21 d ([2]; kidney, 5 mg/kg b.w.): 90 ± 20 ng/g; concentration at 14 d ([2]; liver, 5 mg/kg b. w.): 260 ± 40 ng/g; concentration at 21 d ([2]; liver, 5 mg/kg b. w.): 90 ± 10 ng/g; concentration at 3 d ([2]; muscle, 5 mg/kg b.w.): 870 ± 180 ng/g; concentration at 7 d ([2]; muscle, 5 mg/kg b.w.): 410 ± 90 ng/g; concentration at 14 d ([2]; muscle, 5 mg/kg b.w.): 60 ± 10 ng/g; concentration at 3 d ([2]; skin, 5 mg/kg b. w.): 1330 ± 150 ng/g; concentration at 7 d ([2]; skin, 5 mg/kg b. w.): 800 ± 160 ng/g; concentration at 14 d ([2]; skin, 5 mg/kg b. w.): 60 ± 10 ng/g; half-life [2, 4]: 89.3 h; half-life [2, 5]: 159 h; half-life [2, 6]: 68.9 h; half-life [2, 7]: 57.6 h; half-life [2, 8]: 57.6 to 159 h |
| 12.8% | 23.4% | 13.7% | 7990 ± 1650 ng/g | 1730 ± 330 ng/g | 820 ± 150 ng/g | 380 ± 30 ng/g | 1930 ± 250 ng/g | 770 ± 130 ng/g | 160 ± 30 ng/g | 20 ng/g | 300 ± 80 ng/g | 270 ± 70 ng/g | 550 ± 90 ng/g | 450 ± 130 ng/g | 2.7% | 13.8% | 20.4% | 19.0% | 14.7% | CNc1c(OC)cc(Cc2cnc(N)nc2N)cc1OC [A1, N-monodesmethyl-ADP] | concentration at 3 d ([2]; muscle, 5 mg/kg b.w.): 100 ± 20 ng/g; concentration at 3 d ([2]; skin, 5 mg/kg b. w.): 140 ± 20 ng/g; concentration at 7 d ([2]; skin, 5 mg/kg b. w.): 50 ± 10 ng/g; half-life [2, 4]: 67.4 h; half-life [2, 5]: 26.2 h; half-life [2, 6]: 49.2 h; half-life [2, 7]: 47.8 h; half-life [2, 8]: 26.2 to 67.4 h |
| 6.5% | 12.6% | 4.8% | 780 ± 160 ng/g | 60 ± 10 ng/g |  |  | 440 ± 60 ng/g | 240 ± 40 ng/g |  |  |  |  | 70 ± 10 ng/g | 50 ± 10 ng/g | 0.7% | 1.1% | 0.3% | 6.0% | 2.6% | COc1cc(Cc2cnc(N)nc2N)cc(OC)c1N [A2, N-didesmethyl-ADP] |  |
